Measured values taken from ChEMBL document CHEMBL4229394 (Bioorg Med Chem Lett, 2018).

Experiments:
GABA-B receptor = GABA-B receptor (Homo sapiens, UniProt O75899+Q9UBS5); test: Agonist activity at human GABA-B1/B2 receptor expressed in HEK293/Cre-luc cells assessed as inhibition of forskolin-stimulated cAMP accumulation after 3 hrs by luciferase reporter gene assay; type: cell-based
[1] = biological target: Histamine H1 receptor (Homo sapiens) (UniProt P35367); test: Inhibition of H1 receptor (unknown origin) by radio ligand displacement assay relative to control; settings: concentration not given here
[2] = biological target: Muscarinic acetylcholine receptor M4 (Homo sapiens) (UniProt P08173); test: Inhibition of M4 receptor (unknown origin) by radio ligand displacement assay relative to control; settings: concentration not given here
[3] = biological target: 5-hydroxytryptamine receptor 1D (Homo sapiens) (UniProt P28221); test: Inhibition of 5-HT1D receptor (unknown origin) by radio ligand displacement assay relative to control; settings: concentration not given here
[4] = biological target: Muscarinic acetylcholine receptor M5 (Homo sapiens) (UniProt P08912); test: Inhibition of M5 receptor (unknown origin) by radio ligand displacement assay relative to control; settings: concentration not given here
[5] = biological target: Alpha-1D adrenergic receptor (Homo sapiens) (UniProt P25100); test: Inhibition of alpha-1D adrenergic receptor (unknown origin) by radio ligand displacement assay relative to control; settings: concentration not given here
[6] = biological target: Sigma intracellular receptor 2 (Rattus norvegicus) (UniProt Q5U3Y7); test: Inhibition of rat sigma-2 receptor by radio ligand displacement assay relative to control; settings: concentration not given here
[7] = biological target: Muscarinic acetylcholine receptor M3 (Homo sapiens) (UniProt P20309); test: Inhibition of M3 receptor (unknown origin) by radio ligand displacement assay relative to control; settings: concentration not given here
[8] = biological target: Histamine H2 receptor (Homo sapiens) (UniProt P25021); test: Inhibition of H2 receptor (unknown origin) by radio ligand displacement assay relative to control; settings: concentration not given here
[9] = biological target: Muscarinic acetylcholine receptor M1 (Homo sapiens) (UniProt P11229); test: Inhibition of M1 receptor (unknown origin) by radio ligand displacement assay relative to control; settings: concentration not given here
[10] = biological target: 5-hydroxytryptamine receptor 2A (Homo sapiens) (UniProt P28223); test: Inhibition of 5-HT2A receptor (unknown origin) by radio ligand displacement assay relative to control; settings: concentration not given here
[11] = biological target: 5-hydroxytryptamine receptor 2B (Homo sapiens) (UniProt P41595); test: Inhibition of 5-HT2B receptor (unknown origin) by radio ligand displacement assay relative to control; settings: concentration not given here
[12] = biological target: Sodium-dependent dopamine transporter (Homo sapiens) (UniProt Q01959); test: Inhibition of DAT (unknown origin) by radio ligand displacement assay relative to control; settings: concentration not given here
[13] = biological target: Alpha-1A adrenergic receptor (Homo sapiens) (UniProt P35348); test: Inhibition of alpha-1A adrenergic receptor (unknown origin) by radio ligand displacement assay relative to control; settings: concentration not given here
[14] = biological target: Beta-3 adrenergic receptor (Homo sapiens) (UniProt P13945); test: Inhibition of beta-3 adrenergic receptor (unknown origin) by radio ligand displacement assay relative to control; settings: concentration not given here
[15] = biological target: 5-hydroxytryptamine receptor 7 (Homo sapiens) (UniProt P34969); test: Inhibition of 5-HT7 receptor (unknown origin) by radio ligand displacement assay relative to control; settings: concentration not given here
[16] = biological target: Mu-type opioid receptor (Homo sapiens) (UniProt P35372); test: Inhibition of MOR (unknown origin) by radio ligand displacement assay relative to control; settings: concentration not given here
[17] = biological target: Beta-1 adrenergic receptor (Homo sapiens) (UniProt P08588); test: Inhibition of beta-1 adrenergic receptor (unknown origin) by radio ligand displacement assay relative to control; settings: concentration not given here
[18] = biological target: Muscarinic acetylcholine receptor M2 (Homo sapiens) (UniProt P08172); test: Inhibition of M2 receptor (unknown origin) by radio ligand displacement assay relative to control; settings: concentration not given here
[19] = biological target: Sodium-dependent noradrenaline transporter (Homo sapiens) (UniProt P23975); test: Inhibition of NET (unknown origin) by radio ligand displacement assay relative to control; settings: concentration not given here
[20] = biological target: Sodium-dependent serotonin transporter (Homo sapiens) (UniProt P31645); test: Inhibition of SERT (unknown origin) by radio ligand displacement assay relative to control; settings: concentration not given here
[21] = biological target: D(4) dopamine receptor (Homo sapiens) (UniProt P21917); test: Inhibition of D4 receptor (unknown origin) by radio ligand displacement assay relative to control; settings: concentration not given here
[22] = biological target: 5-hydroxytryptamine receptor 3A (Homo sapiens) (UniProt P46098); test: Inhibition of 5-HT3 receptor (unknown origin) by radio ligand displacement assay relative to control; settings: concentration not given here
[23] = biological target: Alpha-1B adrenergic receptor (Homo sapiens) (UniProt P35368); test: Inhibition of alpha-1B adrenergic receptor (unknown origin) by radio ligand displacement assay relative to control; settings: concentration not given here
[24] = biological target: D(3) dopamine receptor (Homo sapiens) (UniProt P35462); test: Inhibition of D3 receptor (unknown origin) by radio ligand displacement assay relative to control; settings: concentration not given here
[25] = biological target: Sigma non-opioid intracellular receptor 1 (Rattus norvegicus) (UniProt Q9R0C9); test: Inhibition of rat sigma-1 receptor by radio ligand displacement assay relative to control; settings: concentration not given here
[26] = biological target: Beta-2 adrenergic receptor (Homo sapiens) (UniProt P07550); test: Inhibition of beta-2 adrenergic receptor (unknown origin) by radio ligand displacement assay relative to control; settings: concentration not given here
[27] = biological target: 5-hydroxytryptamine receptor 2C (Homo sapiens) (UniProt P28335); test: Inhibition of 5-HT2C receptor (unknown origin) by radio ligand displacement assay relative to control; settings: concentration not given here
[28] = biological target: 5-hydroxytryptamine receptor 6 (Homo sapiens) (UniProt P50406); test: Inhibition of 5-HT6 receptor (unknown origin) by radio ligand displacement assay relative to control; settings: concentration not given here
[29] = biological target: D(1B) dopamine receptor (Homo sapiens) (UniProt P21918); test: Inhibition of D5 receptor (unknown origin) by radio ligand displacement assay relative to control; settings: concentration not given here
[30] = biological target: 5-hydroxytryptamine receptor 1E (Homo sapiens) (UniProt P28566); test: Inhibition of 5-HT1E receptor (unknown origin) by radio ligand displacement assay relative to control; settings: concentration not given here
[31] = biological target: Kappa-type opioid receptor (Homo sapiens) (UniProt P41145); test: Inhibition of KOR (unknown origin) by radio ligand displacement assay relative to control; settings: concentration not given here
[32] = biological target: Histamine H4 receptor (Homo sapiens) (UniProt Q9H3N8); test: Inhibition of H4 receptor (unknown origin) by radio ligand displacement assay relative to control; settings: concentration not given here
[33] = biological target: Alpha-2A adrenergic receptor (Homo sapiens) (UniProt P08913); test: Inhibition of alpha-2A adrenergic receptor (unknown origin) by radio ligand displacement assay relative to control; settings: concentration not given here
[34] = biological target: Delta-type opioid receptor (Homo sapiens) (UniProt P41143); test: Inhibition of DOR (unknown origin) by radio ligand displacement assay relative to control; settings: concentration not given here
[35] = biological target: D(2) dopamine receptor (Homo sapiens) (UniProt P14416); test: Inhibition of D2 receptor (unknown origin) by radio ligand displacement assay relative to control; settings: concentration not given here
[36] = biological target: GABA-A receptor; alpha-1/beta-2/gamma-2 (Rattus norvegicus, UniProt P18508+P62813+P63138); test: Agonist activity at rat GFP-fused GABA-A alpha1/beta2/gamma2 receptor expressed in human tsA201 cells at -60 mV holding potential by whole-cell voltage clamp method; type: cell-based
[37] = biological target: 5-hydroxytryptamine receptor 1B (Homo sapiens) (UniProt P28222); test: Inhibition of 5-HT1B receptor (unknown origin) by radio ligand displacement assay relative to control; settings: concentration not given here
[38] = biological target: Histamine H3 receptor (Homo sapiens) (UniProt Q9Y5N1); test: Inhibition of H3 receptor (unknown origin) by radio ligand displacement assay relative to control; settings: concentration not given here
[39] = biological target: 5-hydroxytryptamine receptor 5A (Homo sapiens) (UniProt P47898); test: Inhibition of 5-HT5A receptor (unknown origin) by radio ligand displacement assay relative to control; settings: concentration not given here
[40] = biological target: D(1A) dopamine receptor (Homo sapiens) (UniProt P21728); test: Inhibition of D1 receptor (unknown origin) by radio ligand displacement assay relative to control; settings: concentration not given here
[41] = biological target: 5-hydroxytryptamine receptor 1A (Homo sapiens) (UniProt P08908); test: Inhibition of 5-HT1A receptor (unknown origin) by radio ligand displacement assay relative to control; settings: concentration not given here
HEK293 = test: Cytotoxicity against HEK293 cells co-expressing human GABA-B1/B2 receptor and Cre-luc plasmid at 50 to 100 uM after 3 hrs by CellTiter 96 aqueous one solution reagent based assay; type: cell-based; settings: hek293, 3 h

Sequence of GABA-B receptor (Q9UBS5 whole entry): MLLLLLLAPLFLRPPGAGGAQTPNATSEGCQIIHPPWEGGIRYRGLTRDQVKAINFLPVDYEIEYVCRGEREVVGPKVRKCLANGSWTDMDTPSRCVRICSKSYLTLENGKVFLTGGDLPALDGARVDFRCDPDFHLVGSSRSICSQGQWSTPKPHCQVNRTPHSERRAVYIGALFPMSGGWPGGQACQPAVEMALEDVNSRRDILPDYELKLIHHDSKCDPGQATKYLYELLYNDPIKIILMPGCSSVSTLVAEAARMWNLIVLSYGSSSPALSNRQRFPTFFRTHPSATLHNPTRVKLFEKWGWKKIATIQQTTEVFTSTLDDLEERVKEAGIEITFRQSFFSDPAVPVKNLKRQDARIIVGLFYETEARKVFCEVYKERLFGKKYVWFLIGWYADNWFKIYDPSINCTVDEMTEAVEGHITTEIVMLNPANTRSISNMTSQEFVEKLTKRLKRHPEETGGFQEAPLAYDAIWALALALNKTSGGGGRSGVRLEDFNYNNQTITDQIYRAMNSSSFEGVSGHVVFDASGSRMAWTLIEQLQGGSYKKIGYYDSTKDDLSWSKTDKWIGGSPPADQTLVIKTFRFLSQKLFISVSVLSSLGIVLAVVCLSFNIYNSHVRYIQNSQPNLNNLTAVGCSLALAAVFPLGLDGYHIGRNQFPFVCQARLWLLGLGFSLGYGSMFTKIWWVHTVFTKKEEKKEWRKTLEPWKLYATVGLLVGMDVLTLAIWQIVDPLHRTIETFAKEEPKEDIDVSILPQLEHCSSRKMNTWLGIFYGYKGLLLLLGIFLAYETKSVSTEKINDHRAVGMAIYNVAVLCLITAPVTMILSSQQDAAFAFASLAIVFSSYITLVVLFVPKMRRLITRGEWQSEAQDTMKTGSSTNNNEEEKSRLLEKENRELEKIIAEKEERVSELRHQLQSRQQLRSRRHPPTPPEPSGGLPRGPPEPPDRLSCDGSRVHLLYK
Sequence of GABA-B receptor (O75899 whole entry): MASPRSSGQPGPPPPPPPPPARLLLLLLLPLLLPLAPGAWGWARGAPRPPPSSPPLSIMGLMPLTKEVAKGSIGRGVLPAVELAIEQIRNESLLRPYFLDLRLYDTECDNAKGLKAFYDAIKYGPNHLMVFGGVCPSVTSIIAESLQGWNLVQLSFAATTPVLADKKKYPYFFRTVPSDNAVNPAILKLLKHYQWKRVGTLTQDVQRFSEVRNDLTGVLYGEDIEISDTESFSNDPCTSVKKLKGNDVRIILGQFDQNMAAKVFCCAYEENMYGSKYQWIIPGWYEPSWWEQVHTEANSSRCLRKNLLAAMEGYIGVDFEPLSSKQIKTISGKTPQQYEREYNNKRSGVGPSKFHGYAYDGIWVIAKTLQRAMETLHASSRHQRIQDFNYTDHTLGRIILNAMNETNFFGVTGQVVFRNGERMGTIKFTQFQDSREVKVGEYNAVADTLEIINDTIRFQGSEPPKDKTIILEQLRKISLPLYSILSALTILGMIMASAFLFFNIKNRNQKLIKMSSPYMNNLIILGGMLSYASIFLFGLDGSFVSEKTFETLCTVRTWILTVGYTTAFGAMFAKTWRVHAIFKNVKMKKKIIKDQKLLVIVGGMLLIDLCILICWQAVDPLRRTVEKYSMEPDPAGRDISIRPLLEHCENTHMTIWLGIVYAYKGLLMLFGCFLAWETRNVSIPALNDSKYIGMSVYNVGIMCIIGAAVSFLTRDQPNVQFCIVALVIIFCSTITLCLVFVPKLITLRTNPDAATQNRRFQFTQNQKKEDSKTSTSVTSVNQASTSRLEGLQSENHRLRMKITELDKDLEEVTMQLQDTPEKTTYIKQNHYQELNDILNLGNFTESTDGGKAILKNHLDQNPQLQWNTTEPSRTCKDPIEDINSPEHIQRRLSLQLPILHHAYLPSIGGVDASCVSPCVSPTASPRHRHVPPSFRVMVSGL
Sequence of GABA-A receptor; alpha-1/beta-2/gamma-2 (P18508 whole entry, the tested form may be a part): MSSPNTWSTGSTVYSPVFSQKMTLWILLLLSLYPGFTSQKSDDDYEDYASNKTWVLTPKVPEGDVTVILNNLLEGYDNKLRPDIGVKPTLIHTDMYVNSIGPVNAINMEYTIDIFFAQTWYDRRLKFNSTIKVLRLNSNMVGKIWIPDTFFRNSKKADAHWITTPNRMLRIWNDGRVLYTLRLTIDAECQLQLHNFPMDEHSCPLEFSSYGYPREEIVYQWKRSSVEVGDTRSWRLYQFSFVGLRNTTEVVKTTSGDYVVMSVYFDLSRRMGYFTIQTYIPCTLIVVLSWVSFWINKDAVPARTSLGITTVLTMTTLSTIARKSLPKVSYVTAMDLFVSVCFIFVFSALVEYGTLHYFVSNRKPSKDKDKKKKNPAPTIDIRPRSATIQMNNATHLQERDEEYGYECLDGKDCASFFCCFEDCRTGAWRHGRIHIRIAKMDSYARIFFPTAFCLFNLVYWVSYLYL
Sequence of GABA-A receptor; alpha-1/beta-2/gamma-2 (P62813 whole entry, the tested form may be a part): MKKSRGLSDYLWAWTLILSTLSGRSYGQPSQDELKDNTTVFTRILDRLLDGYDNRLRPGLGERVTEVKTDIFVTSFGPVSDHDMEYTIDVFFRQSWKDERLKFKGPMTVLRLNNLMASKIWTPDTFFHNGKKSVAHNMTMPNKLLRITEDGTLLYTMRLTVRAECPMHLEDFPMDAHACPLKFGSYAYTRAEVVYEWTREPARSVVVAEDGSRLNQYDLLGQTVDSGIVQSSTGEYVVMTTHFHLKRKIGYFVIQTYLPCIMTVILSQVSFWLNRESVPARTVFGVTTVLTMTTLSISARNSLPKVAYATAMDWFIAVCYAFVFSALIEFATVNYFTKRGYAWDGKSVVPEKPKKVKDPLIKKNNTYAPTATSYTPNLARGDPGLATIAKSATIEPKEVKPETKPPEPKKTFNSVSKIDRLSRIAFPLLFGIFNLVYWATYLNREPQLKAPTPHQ
Sequence of GABA-A receptor; alpha-1/beta-2/gamma-2 (P63138 whole entry, the tested form may be a part): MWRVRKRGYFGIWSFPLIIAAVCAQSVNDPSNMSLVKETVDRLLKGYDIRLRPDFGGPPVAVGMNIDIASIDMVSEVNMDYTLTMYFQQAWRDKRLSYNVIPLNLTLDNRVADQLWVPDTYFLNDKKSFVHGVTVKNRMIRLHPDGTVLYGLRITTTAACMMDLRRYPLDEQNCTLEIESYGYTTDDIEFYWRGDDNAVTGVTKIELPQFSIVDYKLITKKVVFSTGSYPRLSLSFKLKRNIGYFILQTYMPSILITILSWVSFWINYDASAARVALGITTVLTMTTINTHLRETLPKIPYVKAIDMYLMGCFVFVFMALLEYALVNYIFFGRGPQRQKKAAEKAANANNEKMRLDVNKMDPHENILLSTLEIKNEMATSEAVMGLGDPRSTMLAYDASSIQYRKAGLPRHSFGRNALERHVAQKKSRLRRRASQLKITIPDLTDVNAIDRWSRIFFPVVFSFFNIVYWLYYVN
Sequence of Beta-2 adrenergic receptor (Homo sapiens) (P07550 whole entry, looked up): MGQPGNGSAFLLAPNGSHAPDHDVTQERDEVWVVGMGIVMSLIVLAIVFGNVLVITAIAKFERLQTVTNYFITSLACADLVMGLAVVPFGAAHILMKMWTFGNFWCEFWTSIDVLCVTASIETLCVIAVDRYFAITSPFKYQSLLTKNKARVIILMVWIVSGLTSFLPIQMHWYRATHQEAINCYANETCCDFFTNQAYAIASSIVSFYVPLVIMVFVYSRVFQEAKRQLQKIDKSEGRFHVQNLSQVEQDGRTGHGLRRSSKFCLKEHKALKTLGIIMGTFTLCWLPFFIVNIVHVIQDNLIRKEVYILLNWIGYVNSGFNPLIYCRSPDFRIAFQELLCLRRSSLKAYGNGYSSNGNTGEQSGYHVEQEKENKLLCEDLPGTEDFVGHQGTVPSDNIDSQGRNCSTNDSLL
Sequence of Muscarinic acetylcholine receptor M5 (Homo sapiens) (P08912 whole entry): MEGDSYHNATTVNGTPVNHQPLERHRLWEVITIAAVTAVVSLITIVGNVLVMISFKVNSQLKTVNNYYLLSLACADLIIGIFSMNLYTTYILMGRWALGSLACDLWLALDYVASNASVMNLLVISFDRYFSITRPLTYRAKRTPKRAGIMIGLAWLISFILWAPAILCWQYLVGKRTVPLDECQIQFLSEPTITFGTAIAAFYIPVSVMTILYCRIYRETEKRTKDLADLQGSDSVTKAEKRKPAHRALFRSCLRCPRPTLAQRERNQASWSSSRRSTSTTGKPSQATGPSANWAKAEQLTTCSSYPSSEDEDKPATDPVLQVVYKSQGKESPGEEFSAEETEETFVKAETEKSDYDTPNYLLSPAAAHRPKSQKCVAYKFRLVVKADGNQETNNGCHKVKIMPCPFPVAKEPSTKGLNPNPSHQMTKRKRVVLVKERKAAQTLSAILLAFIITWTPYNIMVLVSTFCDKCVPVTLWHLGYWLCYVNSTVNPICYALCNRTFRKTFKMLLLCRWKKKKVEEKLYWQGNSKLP
Sequence of 5-hydroxytryptamine receptor 6 (Homo sapiens) (P50406 whole entry): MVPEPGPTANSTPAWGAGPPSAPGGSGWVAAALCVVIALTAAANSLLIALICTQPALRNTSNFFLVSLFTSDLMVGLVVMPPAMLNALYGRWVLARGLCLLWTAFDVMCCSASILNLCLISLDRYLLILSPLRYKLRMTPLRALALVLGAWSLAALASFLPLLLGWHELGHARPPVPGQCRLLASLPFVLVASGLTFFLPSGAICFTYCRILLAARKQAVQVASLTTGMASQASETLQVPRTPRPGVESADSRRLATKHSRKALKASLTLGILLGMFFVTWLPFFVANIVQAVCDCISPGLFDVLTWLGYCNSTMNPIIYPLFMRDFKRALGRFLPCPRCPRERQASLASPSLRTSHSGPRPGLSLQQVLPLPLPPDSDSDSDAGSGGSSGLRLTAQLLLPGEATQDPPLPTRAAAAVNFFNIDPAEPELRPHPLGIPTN
Sequence of Sigma non-opioid intracellular receptor 1 (Rattus norvegicus) (Q9R0C9 whole entry): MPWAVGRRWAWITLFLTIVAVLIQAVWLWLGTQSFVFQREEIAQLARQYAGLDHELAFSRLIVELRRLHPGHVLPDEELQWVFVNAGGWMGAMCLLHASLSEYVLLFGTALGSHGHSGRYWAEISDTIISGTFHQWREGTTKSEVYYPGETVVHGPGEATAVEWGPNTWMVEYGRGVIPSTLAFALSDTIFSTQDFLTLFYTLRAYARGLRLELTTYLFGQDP

CC(C)CC(=O)C(F)(F)C(NC(=O)OC(C)(C)C)c1ccccc1 (stereo unspecified)
EC50 (GABA-B receptor): > 100 µM

CC(C)(C)OC(=O)NC(c1ccccc1)C(F)(F)C(=O)c1ccc2ccccc2c1 (stereo unspecified)
inhibition [1]: < 30%
inhibition [2]: < 30%
inhibition [3]: < 30%
inhibition [4]: < 30%
inhibition [5]: < 30%
inhibition [6]: < 30%
inhibition [7]: < 30%
inhibition [8]: < 30%
inhibition [9]: < 30%
inhibition [10]: < 30%
inhibition [11]: < 30%
inhibition [12]: < 30%
inhibition [13]: < 30%
inhibition [14]: < 30%
inhibition [15]: < 30%
inhibition [16]: < 30%
inhibition [17]: < 30%
inhibition [18]: < 30%
inhibition [19]: < 30%
inhibition [20]: < 30%
inhibition [21]: < 30%
inhibition [22]: < 30%
inhibition [23]: < 30%
inhibition [24]: < 30%
inhibition [25]: < 30%
inhibition [26]: < 30%
inhibition [27]: < 30%
inhibition [28]: < 30%
inhibition [29]: < 30%
inhibition [30]: < 30%
inhibition [31]: < 30%
inhibition [32]: < 30%
inhibition [33]: < 30%
inhibition [34]: < 30%
inhibition [35]: < 30%
EC50 [36]: > 100 µM
inhibition [37]: < 30%
inhibition [38]: < 30%
EC50 (GABA-B receptor): 19.4 µM
inhibition [39]: < 30%
inhibition [40]: < 30%
inhibition [41]: < 30%

O=C(C12CC3CC(CC(C3)C1)C2)C(F)(F)C(O)c1ccc(Cl)cc1 (stereo unspecified)
Activity (HEK293): Toxic
EC50 (GABA-B receptor): > 100 µM

CCc1ccc(C(O)C(F)(F)C(=O)C23CC4CC(CC(C4)C2)C3)cc1 (stereo unspecified)
Activity (HEK293): Toxic
EC50 (GABA-B receptor): > 100 µM

O=C(C12CC3CC(CC(C3)C1)C2)C(F)(F)C(NS(=O)(=O)c1ccccc1)c1ccccc1 (stereo unspecified)
EC50 (GABA-B receptor): > 100 µM

CC(C)(C)OC(=O)NC(c1ccccc1)C(F)(F)C(=O)c1ccc2c(c1)OCO2 (stereo unspecified)
EC50 (GABA-B receptor): > 100 µM

C/C=C/C=C/C(NCc1ccccc1)C(F)(F)C(=O)c1ccc2ccccc2c1 (stereo unspecified)
EC50 (GABA-B receptor): > 100 µM

CC(=O)c1ccc(C(O)C(F)(F)C(=O)C23CC4CC(CC(C4)C2)C3)cc1 (stereo unspecified)
inhibition [1]: < 30%
inhibition [2]: < 30%
inhibition [3]: < 30%
inhibition [4]: < 30%
inhibition [5]: < 30%
inhibition [6]: < 30%
inhibition [7]: < 30%
inhibition [8]: < 30%
inhibition [9]: < 30%
inhibition [10]: < 30%
inhibition [11]: < 30%
inhibition [12]: < 30%
inhibition [13]: < 30%
inhibition [14]: < 30%
inhibition [15]: < 30%
inhibition [16]: < 30%
inhibition [17]: < 30%
inhibition [18]: < 30%
inhibition [19]: < 30%
inhibition [20]: < 30%
inhibition [21]: < 30%
inhibition [22]: < 30%
inhibition [23]: < 30%
inhibition [24]: < 30%
inhibition [25]: < 30%
inhibition [26]: < 30%
inhibition [27]: < 30%
inhibition [28]: < 30%
inhibition [29]: < 30%
inhibition [30]: < 30%
inhibition [31]: < 30%
inhibition [32]: < 30%
inhibition [33]: < 30%
inhibition [34]: < 30%
inhibition [35]: < 30%
inhibition [37]: < 30%
inhibition [38]: < 30%
inhibition [39]: < 30%
inhibition [40]: < 30%
inhibition [41]: < 30%

O=C(C12CC3CC(CC(C3)C1)C2)C(F)(F)C(O)/C=C/c1ccccc1 (stereo unspecified)
EC50 [36]: > 100 µM

O=C(c1ccc(Cl)cc1)C(F)(F)C(NCc1ccccc1)c1ccccc1 (stereo unspecified)
EC50 [36]: > 100 µM
EC50 (GABA-B receptor): 57.4 µM

CC(=O)c1ccc(C(O)C(F)(F)C(=O)c2ccccn2)cc1 (stereo unspecified)
EC50 (GABA-B receptor): > 100 µM

O=C(C12CC3CC(CC(C3)C1)C2)C(F)(F)C(O)c1ccccc1 (stereo unspecified)
Activity (HEK293): Toxic
EC50 (GABA-B receptor): > 100 µM

O=C(c1ccc2ccccc2c1)C(F)(F)C(NS(=O)(=O)c1ccccc1)c1ccccc1 (stereo unspecified)
EC50 [36]: > 100 µM
EC50 (GABA-B receptor): 32.7 µM

O=C1c2ccccc2C(=O)N1CC(O)C(F)(F)C(=O)C12CC3CC(CC(C3)C1)C2 (stereo unspecified)
EC50 (GABA-B receptor): > 100 µM

O=C(c1ccc2ccccc2c1)C(F)(F)C(NCc1ccccc1)c1ccccc1 (stereo unspecified)
EC50 [36]: > 100 µM
EC50 (GABA-B receptor): 91 µM
